Columns and labels:
Experiment in all cases: relative viability (nuclei count vs DMSO), 5 days (fraction); higher = more cells survive
Shikonin + Olaparib = compound: CC(C)=CC[C@@H](O)C1=CC(=O)c2c(O)ccc(O)c2C1=O [Shikonin] + O=C(c1cc(Cc2n[nH]c(=O)c3ccccc23)ccc1F)N1CCN(C(=O)C2CC2)CC1 [Olaparib] (partner 8 µM)
How it was run: (§1)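 A single step with final 0.05% Triton X-100, 1% formaldehyde and 1 ug/ml Hoechst fixed the cells and stained nuclei 5 days after treatment. Lung cancer cell lines in 1536-well plates had been treated by pin tool the day after seeding with one drug alone or a fixed anchor-drug dose plus five library-drug doses (not always all listed) in √10 steps, and nuclei were counted on 4× images. Relative viability is the ratio of nuclei in treated wells to nuclei in vehicle wells, taken as the median of duplicate plates.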

Shikonin + Linsitinib = compound: CC(C)=CC[C@@H](O)C1=CC(=O)c2c(O)ccc(O)c2C1=O [Shikonin] + C[C@]1(O)C[C@@H](c2nc(-c3ccc4ccc(-c5ccccc5)nc4c3)c3c(N)nccn32)C1 [Linsitinib] (partner 1 µM)
How it was run: as §1

[1] = compound: CC(C)N(CCCNC(=O)Nc1ccc(C(C)(C)C)cc1)C[C@H]1O[C@@H](n2ccc3c(N)ncnc32)[C@H](O)[C@@H]1O + C[C@@H](Oc1cc(-c2cnn(C3CCNCC3)c2)cnc1N)c1c(Cl)ccc(F)c1Cl [Crizotinib] (partner 1 µM)
How it was run: as §1

Shikonin + Palbociclib = compound: CC(C)=CC[C@@H](O)C1=CC(=O)c2c(O)ccc(O)c2C1=O [Shikonin] + CC(=O)c1c(C)c2cnc(Nc3ccc(N4CCNCC4)cn3)nc2n(C2CCCC2)c1=O [Palbociclib] (partner 0.5 µM)
How it was run: as §1

## UMC-11
Shikonin + Olaparib; first compound 0.01 µM
  relative viability: 0.332
Shikonin + Olaparib; first compound 0.1 µM
  relative viability: 0.374
Shikonin + Olaparib; first compound 0.3162 µM
  relative viability: 0.346
Shikonin + Olaparib; first compound 1 µM
  relative viability: 0.374
Shikonin + Linsitinib; first compound 0.01 µM
  relative viability: 1.02
Shikonin + Linsitinib; first compound 0.1 µM
  relative viability: 1.19
Shikonin + Linsitinib; first compound 0.3162 µM
  relative viability: 1.1
Shikonin + Linsitinib; first compound 1 µM
  relative viability: 1.13
[1]; first compound 0.08 µM
  relative viability: 0.579
[1]; first compound 0.253 µM
  relative viability: 0.706
[1]; first compound 0.8 µM
  relative viability: 0.723
[1]; first compound 2.53 µM
  relative viability: 0.656
[1]; first compound 8 µM
  relative viability: 0.636
Shikonin + Palbociclib; first compound 0.01 µM
  relative viability: 0.297
Shikonin + Palbociclib; first compound 0.1 µM
  relative viability: 0.351
Shikonin + Palbociclib; first compound 0.3162 µM
  relative viability: 0.335
Shikonin + Palbociclib; first compound 1 µM
  relative viability: 0.338
